One may read the IC50 as the concentration at which inhibition is half-maximal.

Bounds are passed on as bounds.

The target in one assay is T1, human recombinant HDAC6 (Homo sapiens, UniProt Q9UBN7).
T1 construct: purchased Calbiochem 382180
T1 sequence (Q9UBN7 1-1215): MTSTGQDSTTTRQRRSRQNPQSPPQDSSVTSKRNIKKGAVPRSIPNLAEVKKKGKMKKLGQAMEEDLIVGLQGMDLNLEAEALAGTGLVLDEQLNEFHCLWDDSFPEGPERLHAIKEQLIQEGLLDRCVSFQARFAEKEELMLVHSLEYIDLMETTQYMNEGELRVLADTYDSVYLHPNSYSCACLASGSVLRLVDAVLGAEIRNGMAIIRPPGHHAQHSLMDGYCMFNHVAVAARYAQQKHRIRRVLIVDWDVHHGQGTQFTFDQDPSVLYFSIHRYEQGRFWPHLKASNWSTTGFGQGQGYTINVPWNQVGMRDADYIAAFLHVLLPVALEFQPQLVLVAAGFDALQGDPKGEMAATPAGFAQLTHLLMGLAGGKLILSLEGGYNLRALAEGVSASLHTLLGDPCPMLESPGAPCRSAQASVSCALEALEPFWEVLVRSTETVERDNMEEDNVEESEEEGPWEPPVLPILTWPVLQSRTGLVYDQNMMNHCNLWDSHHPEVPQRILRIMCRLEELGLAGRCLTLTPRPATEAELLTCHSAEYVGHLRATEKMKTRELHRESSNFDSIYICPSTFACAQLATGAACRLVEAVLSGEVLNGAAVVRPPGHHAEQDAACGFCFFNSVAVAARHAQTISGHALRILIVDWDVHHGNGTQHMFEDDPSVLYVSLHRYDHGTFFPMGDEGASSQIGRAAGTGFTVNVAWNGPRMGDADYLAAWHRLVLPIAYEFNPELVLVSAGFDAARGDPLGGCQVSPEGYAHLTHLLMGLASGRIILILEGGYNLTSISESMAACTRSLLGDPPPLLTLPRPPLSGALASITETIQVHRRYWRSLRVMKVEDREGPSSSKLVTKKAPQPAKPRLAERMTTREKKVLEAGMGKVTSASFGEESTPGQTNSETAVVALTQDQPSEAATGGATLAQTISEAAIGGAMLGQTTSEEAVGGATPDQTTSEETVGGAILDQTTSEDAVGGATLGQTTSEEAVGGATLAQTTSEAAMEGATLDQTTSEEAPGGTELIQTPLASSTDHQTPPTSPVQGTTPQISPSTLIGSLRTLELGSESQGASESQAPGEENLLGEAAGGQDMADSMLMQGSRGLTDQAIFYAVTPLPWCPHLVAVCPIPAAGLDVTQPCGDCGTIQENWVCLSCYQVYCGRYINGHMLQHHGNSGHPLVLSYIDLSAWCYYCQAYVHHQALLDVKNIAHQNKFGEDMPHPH
Nature of the assay: HDAC6 enzyme activity inhibition (fluorimetric, in vitro). The class given is biochemical. The note with it: samples at 0.1, 1, 10, 100 and 1000 nM. An outline of the steps: (§1)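 Recombinant human HDAC1 or HDAC6 (0.3 μg) with Fluor de Lys-SIRT1 substrate at […], 60 min at 37 °C, then developer 30 min; fluorescence Ex 360/Em 460. Compounds at 100–10000 nM for HDAC1 and 0.1–1000 nM for HDAC6; IC50 calculated.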

The target in another assay is T2, human recombinant HDAC1 (Homo sapiens, UniProt Q13547).
T2 construct: purchased Enzolifesciences BML-SE456
Nature of the assay: HDAC1 enzyme activity inhibition (HDAC1 Fluorimetric Drug Discovery Assay Kit, in vitro). In kind it is biochemical. To be noted: samples at 100, 1000 and 10000 nM. In short, it runs like this: as §1

T2 sequence (Q13547 whole entry): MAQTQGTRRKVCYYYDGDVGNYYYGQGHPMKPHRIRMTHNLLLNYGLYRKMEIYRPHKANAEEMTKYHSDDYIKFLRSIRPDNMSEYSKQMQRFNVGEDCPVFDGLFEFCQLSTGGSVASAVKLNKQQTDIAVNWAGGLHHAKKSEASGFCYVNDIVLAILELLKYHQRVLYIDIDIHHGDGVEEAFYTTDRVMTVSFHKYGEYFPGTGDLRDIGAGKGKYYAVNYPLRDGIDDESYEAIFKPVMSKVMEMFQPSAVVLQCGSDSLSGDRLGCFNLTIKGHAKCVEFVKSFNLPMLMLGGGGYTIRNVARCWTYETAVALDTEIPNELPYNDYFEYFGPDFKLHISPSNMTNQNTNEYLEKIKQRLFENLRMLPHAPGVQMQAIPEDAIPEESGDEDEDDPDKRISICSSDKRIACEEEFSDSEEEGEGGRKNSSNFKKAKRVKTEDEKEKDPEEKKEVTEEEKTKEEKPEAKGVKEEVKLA

Regarding `N=S1(=O)CCN(C(=O)N(Cc2ncc(-c3nnc(C(F)F)o3)cc2F)c2ccccc2F)CC1` [Compound 55], the IC50 at human recombinant HDAC6 is 140 nM; at human recombinant HDAC1 it was above 10000 nM.

With `N=S1(=O)CCN(C(=O)N(Cc2ccc(-c3nnc(C(F)F)o3)cc2F)c2ccccc2F)CC1` [Compound 56, N-(4-(5-(difluoromethyl)-1,3,4-oxadiazol-2-yl)-2-fluorobenzyl)-N-(2-fluorophenyl)-1-iminothiomorpholin-4-carboxamide 1-oxide], the half-maximal inhibitory concentration (IC50) on human recombinant HDAC6 is 72.6 nM; at human recombinant HDAC1 it was above 10000 nM.

`N=S1(=O)CCN(C(=O)N(Cc2ccc(-c3nnc(C(F)F)o3)cn2)c2ccccc2F)CC1` [Compound 57]: the results for the concentration for half-maximal inhibition (IC50) at human recombinant HDAC6 and at human recombinant HDAC1 were 130 nM and above 10000 nM, respectively.

`O=C(NC1CCS(=O)(=NC(=O)C(F)(F)F)CC1)N(Cc1ccc(-c2nnc(C(F)F)o2)cc1F)c1ccccc1` (stereo not drawn) [Compound 58, N-(4-(3-(4-(5-(difluoromethyl)-1,3,4-oxadiazol-2-yl)-2-fluorobenzyl)-3-phenylureido)-1-oxidotetrahydro-2H-thiopyran-1-yliden)-2,2,2-trifluoroacetamide]: the IC50 on human recombinant HDAC6 was 256 nM; on human recombinant HDAC1, above 10000 nM.

As to `N=S1(=O)CCC(NC(=O)N(Cc2ccc(-c3nnc(C(F)F)o3)cc2F)c2ccccc2)CC1` (stereo not drawn) [Compound 59, 1-(4-(5-(difluoromethyl)-1,3,4-oxadiazol-2-yl)-2-fluorobenzyl)-3-(1-imino-1-oxidotetrahydro-2H-thiopyran-4-yl)-1-phenylurea], the IC50 at human recombinant HDAC6 was 116 nM; at human recombinant HDAC1, above 10000 nM.

Consider `N=S1(=O)CCN(c2c(N(Cc3ccc(-c4nnc(C(F)F)o4)cc3F)c3ccccc3)c(=O)c2=O)CC1` [Compound 60, 3-((4-(5-(difluoromethyl)-1,3,4-oxadiazol-2-yl)-2-fluorobenzyl)(phenyl)amino)-4-(1-imino-1-oxidothiomorpholino)cyclobut-3-en-1,2-dione], for which the half-inhibitory concentration (IC50) was 26.7 nM at human recombinant HDAC6 and above 10000 nM on human recombinant HDAC1.

Take `N=S1(=O)CCN(c2c(N(Cc3ncc(-c4nnc(C(F)F)o4)cc3F)c3ccccc3)c(=O)c2=O)CC1` [Compound 61, 3-(((5-(5-(difluoromethyl)-1,3,4-oxadiazol-2-yl)-3-fluoropyridin-2-yl)methyl)(phenyl)amino)-4-(1-imino-1-oxidothiomorpholino)cyclobut-3-en-1,2-dione]: the 50% inhibitory concentration (IC50) on human recombinant HDAC6 is 29.8 nM; at human recombinant HDAC1 it was above 10000 nM.

As to `N=S1(=O)CCN(C(=O)N(Cc2ccc(-c3nnc(C(F)F)o3)cn2)c2ccc(F)cc2)CC1` [Compound 62, N-[[5-[5-(difluoromethyl)-1,3,4-oxadiazol-2-yl]-2-pyridyl]methyl]-N-(4-fluorophenyl)-1-imino-1-oxo-1,4-thiazinan-4-carboxamide], the values for the IC50 at human recombinant HDAC6 and on human recombinant HDAC1 were 88.4 nM and above 10000 nM, respectively.

In the case of `N=S1(=O)CCN(C(=O)N(Cc2ccc(-c3nnc(C(F)F)o3)cc2F)c2ccc(F)cc2)CC1` [Compound 63, N-[[4-[5-(difluoromethyl)-1,3,4-oxadiazol-2-yl]-2-fluoro-phenyl]methyl]-N-(4-fluorophenyl)-1-imino-1-oxo-1,4-thiazinan-4-carboxamide], the half-maximal inhibitory concentration (IC50) on human recombinant HDAC6 was 99.6 nM; at human recombinant HDAC1, above 10000 nM.

As to `CC1CN(C(=O)N(Cc2ccc(-c3nnc(C(F)F)o3)cn2)c2ccc(F)cc2)CC(C)S1(=N)=O` (stereo not drawn) [Compound 64, N-[[5-[5-(difluoromethyl)-1,3,4-oxadiazol-2-yl]-2-pyridyl]methyl]-N-(4-fluorophenyl)-1-imino-2,6-dimethyl-1-oxo-1,4-thiazinan-4-carboxamide], the IC50 at human recombinant HDAC6 was 123 nM; on human recombinant HDAC1 it was above 10000 nM.

Consider `CC1CN(C(=O)N(Cc2ccc(-c3nnc(C(F)F)o3)cc2F)c2ccc(F)cc2)CC(C)S1(=N)=O` (stereo not drawn) [Compound 65, N-[[4-[5-(difluoromethyl)-1,3,4-oxadiazol-2-yl]-2-fluoro-phenyl]methyl]-N-(4-fluorophenyl)-1-imino-2,6-dimethyl-1-oxo-1,4-thiazinan-4-carboxamide], for which the values for the 50% inhibitory concentration (IC50) on human recombinant HDAC6 and on human recombinant HDAC1 were 105 nM and above 10000 nM, respectively.

`N=S1(=O)CCN(C(=O)N(Cc2ccc(-c3nnc(C(F)F)o3)cc2F)c2cccnc2)CC1` [Compound 66, N-[[4-[5-(difluoromethyl)-1,3,4-oxadiazol-2-yl]-2-fluoro-phenyl]methyl]-1-imino-1-oxo-N-(3-pyridyl)-1,4-thiazinan-4-carboxamide]: the results for the half-maximal inhibitory concentration (IC50) on human recombinant HDAC6 and on human recombinant HDAC1 were 90.2 nM and above 10000 nM, respectively.

As for `CC(=O)N1CCC(c2ccc(N(Cc3ccc(-c4nnc(C(F)F)o4)cc3F)C(=O)N3CCS(=N)(=O)CC3)cc2)CC1` [Compound 67], the figures for the 50% inhibitory concentration (IC50) on human recombinant HDAC6 and at human recombinant HDAC1 were 347 nM and above 10000 nM, respectively.

In the case of `N=S1(=O)C[C@@H]2C[C@H]1CN2C(=O)N(Cc1ccc(-c2nnc(C(F)F)o2)cc1F)c1ccccc1` (stereo partly drawn) [Compound 68, (1S,4S)—N-[[4-[5-(difluoromethyl)-1,3,4-oxadiazol-2-yl]-2-fluoro-phenyl]methyl]-2-imino-2-oxo-N-phenyl-2lambda6-thia-5-azabicyclo[2.2.1]heptan-5-carboxamide], the figures for the IC50 at human recombinant HDAC6 and on human recombinant HDAC1 were 39 nM and above 10000 nM, respectively.

With `N=S1(=O)CCN(S(=O)(=O)N(Cc2ccc(-c3nnc(C(F)F)o3)cc2F)c2cc(F)ccc2F)CC1` [Compound 69, N-[[4-[5-(difluoromethyl)-1,3,4-oxadiazol-2-yl]-2-fluoro-phenyl]methyl]-N-(2,5-difluorophenyl)-1-imino-1-oxo-1,4-thiazinan-4-sulfonamide], the concentration for half-maximal inhibition (IC50) on human recombinant HDAC6 is 124 nM; at human recombinant HDAC1, above 10000 nM.

On to `N=S1(=O)CCN(S(=O)(=O)N(Cc2ccc(-c3nnc(C(F)F)o3)cc2F)c2cccc(Cl)c2)CC1` [Compound 70, N-(3-chlorophenyl)-N-[[4-[5-(difluoromethyl)-1,3,4-oxadiazol-2-yl]-2-fluoro-phenyl]methyl]-1-imino-1-oxo-1,4-thiazinan-4-sulfonamide], for which the figures for the IC50 at human recombinant HDAC6 and at human recombinant HDAC1 were 52.2 nM and above 10000 nM, respectively.

Turning to `N=S1(=O)CCN(S(=O)(=O)N(Cc2ccc(-c3nnc(C(F)F)o3)cn2)c2cccc(Cl)c2)CC1` [Compound 71, N-(3-chlorophenyl)-N-[[5-[5-(difluoromethyl)-1,3,4-oxadiazol-2-yl]-2-pyridyl]methyl]-1-imino-1-oxo-1,4-thiazinan-4-sulfonamide], the figures for the IC50 at human recombinant HDAC6 and at human recombinant HDAC1 were 31.7 nM and above 10000 nM, respectively.

`COc1cccc(N(Cc2ccc(-c3nnc(C(F)F)o3)cn2)S(=O)(=O)N2CCS(=N)(=O)CC2)c1` [Compound 72, N-[[5-[5-(difluoromethyl)-1,3,4-oxadiazol-2-yl]-2-pyridyl]methyl]-1-imino-N-(3-methoxyphenyl)-1-oxo-1,4-thiazinan-4-sulfonamide]: the half-inhibitory concentration (IC50) is 78.8 nM at human recombinant HDAC6 and above 10000 nM at human recombinant HDAC1.

Consider `COc1cccc(N(Cc2ccc(-c3nnc(C(F)F)o3)cc2F)S(=O)(=O)N2CCS(=N)(=O)CC2)c1` [Compound 73, N-[[4-[5-(difluoromethyl)-1,3,4-oxadiazol-2-yl]-2-fluoro-phenyl]methyl]-1-imino-N-(3-methoxyphenyl)-1-oxo-1,4-thiazinan-4-sulfonamide], for which the IC50 at human recombinant HDAC6 was 72.5 nM; on human recombinant HDAC1, above 10000 nM.

For the compound `N=S1(=O)CCN(CCS(=O)(=O)N(Cc2ccc(-c3nnc(C(F)F)o3)cc2F)c2ccccc2)CC1` [Compound 74, N-[[4-[5-(difluoromethyl)-1,3,4-oxadiazol-2-yl]-2-fluoro-phenyl]methyl]-2-(1-imino-1-oxo-1,4-thiazinan-4-yl)-N-phenyl-ethanesulfonamide], the concentration for half-maximal inhibition (IC50) at human recombinant HDAC6 was 63.6 nM; on human recombinant HDAC1, above 10000 nM.

With `CS(=N)(=O)C1CCN(C(=O)N(Cc2ccc(-c3nnc(C(F)F)o3)cc2F)c2ccccc2)CC1` (stereo not drawn) [Compound 75, N-[[4-[5-(difluoromethyl)-1,3,4-oxadiazol-2-yl]-2-fluoro-phenyl]methyl]-4-(methylsulfonimidoyl)-N-phenyl-piperidin-1-carboxamide], the results for the IC50 on human recombinant HDAC6 and on human recombinant HDAC1 were 96.3 nM and above 10000 nM, respectively.

The values are drawn from US20260125370A1, “SULFOXIMINE COMPOUNDS AS HISTONE DEACETYLASE 6 INHIBITOR, AND PHARMACEUTICAL COMPOSITION COMPRISING THE SAME” (CHONG KUN DANG PHARMACEUTICAL CORP., priority 2022, published 2026).
